In US20230277553A1, “THERAPEUTIC COMPOSITION OF CURE-PRO COMPOUNDS FOR TARGETED DEGRADATION OF BET DOMAIN PROTEINS, AND METHODS OF MAKING AND USAGE” (CORNELL UNIVERSITY, priority 2020, published 2023):
Entries after “also recorded” stand apart in the source; their conditions may differ.

What was measured:
[1] = biological target: T1, BRD4 (Homo sapiens, UniProt O60885); assay: Summary of BRD4 degradation by CURE-PRO pairs, estimated from Western Blot or WES (Proteinsimple); type: cell-based; parameters: endogenous in cells; details: for Degradation of BRD4 in combination with CRBN ligand [drawing 372] / Degradation of BRD4 in combination with CRBN ligand [drawing 371] / Degradation of BRD4 in combination with CRBN ligand [drawing 370]: Table 1; for Degradation of BRD4 in combination with CRBN ligand [drawing 372]: third drawing (8066); for Degradation of BRD4 in combination with CRBN ligand [drawing 371]: second drawing (8047); for Degradation of BRD4 in combination with CRBN ligand [drawing 370]: aromatic 1,2-diol- or hindered cis-1,2-diol-containing CRBN ligand, first drawing (8046); for Degradation of BRD4 in combination with VHL ligand [drawing 397]: second drawing (8305)
Text: A black check mark indicates efficacy of 30% to 70% or higher protein degradation.

[2] = biological target: T1, BRD4; assay: CURE-PRO-mediated BRD4 degradation, Western blot, HeLa cells; type: cell-based; parameters: endogenous in cells; host or cells: HeLa; details: 24 h; for BRD4 degradation, co-treatment with CRBN ligand 8046: 1:1 with 8046, 10 μM each; for BRD4 degradation, co-treatment with CRBN ligand 8047: 1:1 with 8047, 10 μM each; for BRD4 degradation, co-treatment with CRBN ligand 8066: 1:1 with 8066, 10 μM each (BRD-E10: 10 and 100 μM)
Experimental: All cell lines were purchased from ATCC or DSMZ and grown at 37° C. with 5% CO2. Human HeLa cells were cultured in complete growth medium (Dulbecco's modified Eagle's medium (DMEM) supplemented with 10% FBS); MCF7 cells were cultured in complete growth medium (Dulbecco's modified Eagle's medium (DMEM) supplemented with 10% FBS and 0.01 mg/ml human recombinant insulin (Sigma Aldrich); Namalwa and MOLM-13 cells were cultured in complete growth medium (RPMI 1640 medium supplemented with 10% FBS); MV-4-11 were cultured in complete growth medium (Iscove's Modified Dulbecco's medium, supplemented with 10% FBS); HCT116 cells were cultured in complete growth medium (McCoy's 5a Medium supplemented with 10% FBS). For cellular degradation of BRD4 studies, cells were seeded in a 12-well plate at 70-80% confluency, allowed to attach overnight, and incubated with the indicated compounds for the indicated time. When indicated, a 15-minute pretreatment with 10 μM pomalidomide, 10 μM VHL298, 10 μM Nutlin3a, 1 μM MG-132 or 1 μM Carfilzomib was performed before the addition of CURE-PROs. For washout studies, after CURE-PRO treatment, media was aspirated and incubated with complete medium for the indicated time before lysis.
Anti-BRD4 (13440, 1:1,000 dilution for Western Blot and 1:25 dilution for ProteinSimple); Anti-BRD2 (5848 1:1,000 dilution for Western Blot and 1:25 dilution for ProteinSimple); β-Actin (3700, 1:2,000 dilution for Western Blot), β-Actin (4970, 1:50 dilution for ProteinSimple) anti-mouse IgG-HRP, and anti-rabbit IgG-HRP antibodies were purchased Cell Signaling Technology. Anti-GAPDH (600-401-A33, 1:100 dilution for ProteinSimple) was purchased from Rockland Immunochemicals, Inc. Anti-BRD3 (sc-81202, 1:200 dilution for Western Blot) was purchased from Santa Cruz Biotechnology.
HeLa, MCF7, or HCT116 cells (2.5-3×10^6) were treated for 24 hours with the indicated compounds solubilized in DMSO. The cells were washed in ice-cold PBS and were then lysed in RIPA lysis buffer (150 mM NaCl, 5 mM EDTA, 1% NP-40, 0.5% sodium deoxycholate, 0.1% SDS, 50 mM Tris, pH 8.0.) with Roche protease inhibitor complete cocktail and phosphatase inhibitors (10 mM sodium fluoride, 10 mM sodium pyrophosphate, 1 mM sodium orthovanadate and 20 mM β-glycerophosphate). The total protein concentrations were determined by Bradford Protein Assay and 10-20 μg of protein was loaded onto 4-15% Tris-Glycine gradient gels (Biorad). After standard gel electrophoresis, the separated proteins were transferred to PVDF membrane by wet transfer. The immunoblots were then blocked for 1 hour in 5% skim milk in TBST or 5% BSA in TBST, according to manufacturer's instructions, before an overnight incubation at 4° C. with indicated antibodies and membranes. Membranes were then incubated with the appropriate horseradish peroxidase-conjugated secondary antibodies (1:5,000 dilution) for 1 h at room temperature and the bands were visualized using the Clarity Max Western ECL Substrate (Biorad) and the ChemiDoc Imaging System (Biorad). Signal was detected with ECL Western Blotting Substrate (Pierce) and X-ray film processed with a Konica SRX-101 X-ray film processor or captured by Bio-Rad's Chemidoc Imaging system.
HeLa cells (2.5×106) were treated for 24 hours with the sample compounds solubilized in DMSO. Compounds were added at 1-10 μM each. Standardized protein samples were electrophoresed and imaged as described in the immunoblotting description above. FIGS. 6-18 depicts the CURE-PRO-mediated BRD4 degradation for BRD monomers (JQ1 derivatives comprising of catechol linkers), and CRBN ligands, 8048 and 8049 (pomalidomide derivatives comprising boronic acid linkers) combined in a 1:1 ratio.
HeLa cells (2.5×106) were treated for 24 hours with the compounds solubilized in DMSO. The compounds were added at 10 μM each. Standardized protein samples were electrophoresed and imaged as described in the immunoblotting section above. […]

[3] = Table 3, aromatic 1,2-diol-containing VHL ligand

Structure (SMILES)	Degradation of BRD4 in combination with CRBN ligand [drawing 372] [1]	Degradation of BRD4 in combination with CRBN ligand [drawing 371] [1]	BRD4 degradation, co-treatment with CRBN ligand 8047 ([2]; Western blot)	also measured
COc1ccc2c(c1)C(c1ccc(Cl)cc1)=N[C@@H](CC(=O)NCCCCCNC(=O)c1ccc(B(O)O)cc1)c1nnc(C)n1-2 [BRD- E07]	✓ (A black check mark indicates efficacy of 30% to 70% or higher protein degradation)			
COc1ccc2c(c1)C(c1ccc(Cl)cc1)=N[C@@H](CC(=O)NCCNC(=O)Cc1cccc(B(O)O)c1)c1nnc(C)n1-2 [BRD- E38]		✓ (A black check mark indicates efficacy of 30% to 70% or higher protein degradation)		
CCNC(=O)C[C@@H]1N=C(c2ccc(Cl)cc2)c2cc(OCCOCCNC(=O)c3ccc(B(O)O)cc3)ccc2-n2c(C)nnc21 [BRD- E39]				Degradation of BRD4 in combination with CRBN ligand [drawing 370] [1]: ✓ (A black check mark indicates efficacy of 30% to 70% or higher protein degradation)
CCNC(=O)C[C@@H]1N=C(c2ccc(Cl)cc2)c2cc(OCCOCCOCCNC(=O)c3ccc(O)c(O)c3)ccc2-n2c(C)nnc21 [BRD- N40]				Degradation of BRD4 in combination with aryl-boronic acid-containing VHL ligand ([1]; Table 6, head shows drawings [drawing 429] and [drawing 430]): ✓ (A black check mark indicates efficacy of 30% to 70% or higher protein degradation)
COc1ccc2c(c1)C(c1ccc(Cl)cc1)=N[C@@H](CC(=O)NCCNC(=O)c1cccc(B(O)O)c1)c1nnc(C)n1-2 [BRD-E2]				Degradation of BRD4 in combination with VHL ligand [drawing 397] [1, 3]: ✓ (A black check mark indicates efficacy of 30% to 70% or higher protein degradation)
COc1ccc2c(c1)C(c1ccc(Cl)cc1)=N[C@@H](CC(=O)NCCCNC(=O)c1cccc(B(O)O)c1)c1nnc(C)n1-2 [BRD-E4]	✓ (A black check mark indicates efficacy of 30% to 70% or higher protein degradation)	✓ (A black check mark indicates efficacy of 30% to 70% or higher protein degradation)	causes degradation of BRD4; also recorded: Degradation is noted	Degradation of BRD4 in combination with CRBN ligand [drawing 370] [1]: ✓ (A black check mark indicates efficacy of 30% to 70% or higher protein degradation); BRD4 degradation, co-treatment with CRBN ligand 8046 ([2]; Western blot): causes degradation of BRD4; also recorded: Degradation is noted; BRD4 degradation, co-treatment with CRBN ligand 8066 ([2]; Western blot): causes degradation of BRD4; also recorded: Degradation is noted
COc1ccc2c(c1)C(c1ccc(Cl)cc1)=N[C@@H](CC(=O)NCCCCNC(=O)c1ccc(B(O)O)cc1)c1nnc(C)n1-2 [BRD-E5]	✓ (A black check mark indicates efficacy of 30% to 70% or higher protein degradation)	✓ (A black check mark indicates efficacy of 30% to 70% or higher protein degradation)	causes degradation of BRD4; also recorded: Degradation is noted	BRD4 degradation, co-treatment with CRBN ligand 8066 ([2]; Western blot): causes degradation of BRD4; also recorded: Degradation is noted
COc1ccc2c(c1)C(c1ccc(Cl)cc1)=N[C@@H](CC(=O)NCc1ccc(B(O)O)cc1)c1nnc(C)n1-2 [BRD-E09, (4-((2-((4S)-6-(4-chlorophenyl)-8-methoxy-1-methyl-4H-benzo[f][1,2,4]triazolo[4,3-a][1,4]diazepin-4-yl)acetamido)methyl)phenyl)boronic acid]				Degradation of BRD4 in combination with VHL ligand [drawing 397] [1, 3]: ✓ (A black check mark indicates efficacy of 30% to 70% or higher protein degradation)
COc1ccc2c(c1)C(c1ccc(Cl)cc1)=N[C@@H](CC(=O)NCc1cccc(B(O)O)c1)c1nnc(C)n1-2 [BRD-E10]		✓ (A black check mark indicates efficacy of 30% to 70% or higher protein degradation)		Degradation of BRD4 in combination with CRBN ligand [drawing 370] [1]: ✓ (A black check mark indicates efficacy of 30% to 70% or higher protein degradation); Degradation of BRD4 in combination with VHL ligand [drawing 396] ([1]; Table 3, aromatic 1,2-diol-containing VHL ligand, first drawing (by text: 8304)): ✓ (A black check mark indicates efficacy of 30% to 70% or higher protein degradation); Concentration at which BRD4 degradation is observed, co-dosed with 8046 ([2]; 1:1 with 8046): 100 µM; Concentration at which complete BRD4 degradation is demonstrated, with 8047 ([2]; 1:1 with 8047, tested 10 and 100 μM): 10 µM
COc1ccc2c(c1)C(c1ccc(Cl)cc1)=N[C@@H](CC(=O)NCCNC(=O)Cc1ccc(B(O)O)cc1)c1nnc(C)n1-2 [BRD-E27, (4-(2-((2-(2-((4S)-6-(4-chlorophenyl)-8-methoxy-1-methyl-4H-benzo[f][1,2,4]triazolo[4,3-a][1,4]diazepin-4-yl)acetamido)ethyl)amino)-2-oxoethyl)phenyl)boronic acid]		✓ (A black check mark indicates efficacy of 30% to 70% or higher protein degradation)	causes degradation of BRD4	
COc1ccc2c(c1)C(c1ccc(Cl)cc1)=N[C@@H](CC(=O)NCCNC(=O)/C=C/c1cccc(B(O)O)c1)c1nnc(C)n1-2 [BRD-E30, (3-((E)-3-((2-(2-((4S)-6-(4-chlorophenyl)-8-methoxy-1-methyl-4H-benzo[f][1,2,4]triazolo[4,3-a][1,4]diazepin-4-yl)acetamido)ethyl)amino)-3-oxoprop-1-en-1-yl)phenyl)boronic acid]	✓ (A black check mark indicates efficacy of 30% to 70% or higher protein degradation)	✓ (A black check mark indicates efficacy of 30% to 70% or higher protein degradation)		BRD4 degradation, BRD ligand alone ([2]; BRD monomer alone, Western blot): no change in expression
CCNC(=O)C[C@@H]1N=C(c2ccc(Cl)cc2)c2cc(OCCOCCOCCNC(=O)c3cccc(B(O)O)c3)ccc2-n2c(C)nnc21 [BRD-E42]		✓ (A black check mark indicates efficacy of 30% to 70% or higher protein degradation)	causes degradation of BRD4	
CCNC(=O)C[C@@H]1N=C(c2ccc(Cl)cc2)c2cc(OCCOCCOCCOCCNC(=O)c3ccc(B(O)O)cc3)ccc2-n2c(C)nnc21 [BRD-E43]	✓ (A black check mark indicates efficacy of 30% to 70% or higher protein degradation)	✓ (A black check mark indicates efficacy of 30% to 70% or higher protein degradation)	causes degradation of BRD4	BRD4 degradation, co-treatment with CRBN ligand 8046 ([2]; Western blot): but not 8046; BRD4 degradation, co-treatment with CRBN ligand 8066 ([2]; Western blot): causes degradation of BRD4; also recorded: Degradation is noted
CCNC(=O)C[C@@H]1N=C(c2ccc(SCc3ccc(B(O)O)cc3)cc2)c2cc(OC)ccc2-n2c(C)nnc21 [BRD-E54]				Degradation of BRD4 in combination with VHL ligand [drawing 397] [1, 3]: ✓ (A black check mark indicates efficacy of 30% to 70% or higher protein degradation)
COc1ccc2c(c1)C(c1ccc(Cl)cc1)=N[C@@H](CC(=O)Nc1ccc(O)c(O)c1)c1nnc(C)n1-2 [BRD-N68]				Degradation of BRD4 in combination with CRBN ligand [drawing 407] ([1]; Table 4, aryl-boronic acid-containing CRBN ligand, first drawing (by text: 8048)): ✓ (A black check mark indicates efficacy of 30% to 70% or higher protein degradation)
